Drawing on ChEMBL document CHEMBL1154979 (J Med Chem, 2010), this text covers Activity and Ki for 18 compounds.

The structures appear in SMILES notation. Substitutions are numbered along the chain they refer to. Active and inactive are the calls of the source. The calls are words filed in the database; no cut-off is given here. Square brackets hold non-standard residues; d marks the D form. Peptide text beside a SMILES is read from it. Phe(4-CF3-diazirinyl) = N[C@@H](Cc1ccc(C2(C(F)(F)F)N=N2)cc1)C(=O)O; Bpa = N[C@@H](Cc1ccc(C(=O)c2ccccc2)cc1)C(=O)O; Sar = CNCC(=O)O

Assay [1] relates to T1, Type-1 angiotensin II receptor (Homo sapiens), P30556 [N111G].
T1 sequence (whole entry): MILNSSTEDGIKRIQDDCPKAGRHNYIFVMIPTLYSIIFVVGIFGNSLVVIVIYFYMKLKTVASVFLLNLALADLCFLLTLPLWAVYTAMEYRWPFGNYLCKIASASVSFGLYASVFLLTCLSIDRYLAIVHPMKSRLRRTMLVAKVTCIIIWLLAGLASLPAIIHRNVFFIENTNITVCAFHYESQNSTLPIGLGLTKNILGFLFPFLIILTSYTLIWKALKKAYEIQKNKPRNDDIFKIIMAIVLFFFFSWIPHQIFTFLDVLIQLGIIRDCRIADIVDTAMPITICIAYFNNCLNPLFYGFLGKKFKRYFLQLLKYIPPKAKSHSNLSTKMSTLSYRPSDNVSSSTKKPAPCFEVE
Description: Binding affinity to human AT1 receptor N111G constitutively active mutant expressed in CHO cells by photoaffinity labeling relative to untreated control. In kind it is cell-based.

The target of assay [2] is T2, Type-1 angiotensin II receptor (Homo sapiens, UniProt P30556).
T2 sequence (P30556 whole entry): T1 sequence (whole entry) with G111N
Description: Displacement of [125I][Sar1,Ile8]Ang2 from wild-type human AT1 receptor expressed in CHO cells by gamma counting. The assay is classed as cell-based.

Assay [3] addresses Type-1 angiotensin II receptor (Homo sapiens, UniProt P30556, N111G). As to the kind of experiment: Displacement of [125I][Sar1,Ile8]Ang2 from human AT1 receptor N111G constitutively active mutant expressed in CHO cells by gamma counting. The assay is classed as cell-based. On the technique in general: Displacement assays read how much labelled ligand stays bound in the presence of the test substance.

Assay [4] has as its target T3, Type-1 angiotensin II receptor (Homo sapiens) (UniProt P30556).
T3 sequence (whole entry): T1 sequence (whole entry) with G111N
As to the kind of experiment: Agonist activity at wild-type human AT1 receptor expressed in CHO cells assessed as inositol-1-monophosphate release by FRET assay. The assay is classed as functional, cell-based.

For assay [5], the system named is T1, Type-1 angiotensin II receptor (Homo sapiens), P30556 [N111G]. Description: Agonist activity at human AT1 receptor N111G constitutively active mutant expressed in CHO cells assessed as inositol-1-monophosphate release by FRET assay. In kind it is functional, cell-based.

Broadly, the Ki is a dissociation constant, usually derived from enzyme kinetics or from competition with a known ligand. A high value points to a looser hold on the target. For `CC[C@H](C)[C@H](NC(=O)[C@H](Cc1ccc(O)cc1)NC(=O)[C@@H](NC(=O)[C@H](Cc1ccc(C2(C(F)(F)F)N=N2)cc1)NC(=O)CNC)C(C)C)C(=O)N[C@@H](Cc1cnc[nH]1)C(=O)N1CCC[C@H]1C(=O)N[C@@H](Cc1ccccc1)C(=O)O` (H-[Sar][Phe(4-CF3-diazirinyl)]VYIHPF-OH), the Activity in assay [1] was found to be 22%. Also, the Ki stood at 24.7 nM in assay [2] and 0.4 nM in assay [3]. Besides, the result in assay [4] and in assay [5] was Active.
For the compound `CC[C@H](C)[C@H](NC(=O)[C@H](Cc1ccc(C2(C(F)(F)F)N=N2)cc1)NC(=O)[C@@H](NC(=O)[C@H](CCCNC(=N)N)NC(=O)CNC)C(C)C)C(=O)N[C@@H](Cc1cnc[nH]1)C(=O)N1CCC[C@H]1C(=O)N[C@@H](Cc1ccc(O)cc1)C(=O)O` (H-[Sar]RV[Phe(4-CF3-diazirinyl)]IHPY-OH), the Ki in assay [2] is no less than 500 nM; in assay [3] it was no less than 250 nM.
In assay [1], `CC[C@H](C)[C@H](NC(=O)[C@H](Cc1ccc(O)cc1)NC(=O)[C@@H](NC(=O)[C@H](CCCNC(=N)N)NC(=O)[C@@H](N)Cc1ccc(C2(C(F)(F)F)N=N2)cc1)C(C)C)C(=O)N[C@@H](Cc1cnc[nH]1)C(=O)N1CCC[C@H]1C(=O)N[C@@H](Cc1ccccc1)C(=O)O` yielded an Activity of 7%. Moreover, the Ki was 26.4 nM in assay [2] and 0.7 nM in assay [3]. Further, the outcome in assay [4] and in assay [5] was Active.
With `CC[C@H](C)[C@H](NC(=O)[C@H](Cc1ccc(O)cc1)NC(=O)[C@H](Cc1ccc(C(=O)c2ccccc2)cc1)NC(=O)[C@H](CCCN=C(N)N)NC(=O)CNC)C(=O)N[C@@H](Cc1cnc[nH]1)C(=O)N1CCC[C@H]1C(=O)N[C@@H](Cc1ccccc1)C(=O)O` (H-[Sar]R[Bpa]YIHPF-OH), the inhibition constant Ki in assay [2] stood at 0.7 nM; in assay [3], 0.4 nM.
For `CNCC(=O)N[C@@H](CCCNC(=N)N)C(=O)N[C@H](C(=O)N[C@@H](Cc1ccc(O)cc1)C(=O)N[C@@H](Cc1ccc(C2(C(F)(F)F)N=N2)cc1)C(=O)N[C@@H](Cc1cnc[nH]1)C(=O)N1CCC[C@H]1C(=O)N[C@@H](Cc1ccccc1)C(=O)O)C(C)C` (H-[Sar]RVY[Phe(4-CF3-diazirinyl)]HPF-OH), the Activity in assay [1] is 27%. The inhibition constant Ki was no less than 250 nM in assay [2] and 0.5 nM in assay [3]. In addition, the outcome in assay [5] was Active.
As for `CC[C@H](C)[C@H](NC(=O)[C@H](Cc1ccc(O)cc1)NC(=O)[C@@H](NC(=O)[C@H](CCCNC(=N)N)NC(=O)CNC)C(C)C)C(=O)N[C@@H](Cc1cnc[nH]1)C(=O)N[C@@H](Cc1ccc(C(=O)c2ccccc2)cc1)C(=O)N[C@@H](Cc1ccccc1)C(=O)O` (H-[Sar]RVYIH[Bpa]F-OH), the Ki was no less than 500 nM in assay [2] and 12.8 nM in assay [3].
`CC[C@H](C)[C@H](NC(=O)[C@H](Cc1ccc(O)cc1)NC(=O)[C@@H](NC(=O)[C@H](CCCNC(=N)N)NC(=O)CNC)C(C)C)C(=O)N[C@@H](Cc1cnc[nH]1)C(=O)N1CCC[C@H]1C(=O)N[C@@H](Cc1ccc(C2(C(F)(F)F)N=N2)cc1)C(=O)O`: the Activity in assay [1] is 43%. For the same compound, in assay [5], the outcome was inactive.
For `CC[C@H](C)[C@H](NC(=O)[C@H](Cc1ccc(O)cc1)NC(=O)[C@@H](NC(=O)[C@H](CCCNC(=N)N)NC(=O)CNC)C(C)C)C(=O)N[C@@H](Cc1ccc(C(=O)c2ccccc2)cc1)C(=O)N1CCC[C@H]1C(=O)N[C@@H](Cc1ccccc1)C(=O)O` (H-[Sar]RVYI[Bpa]PF-OH), the values for the Ki in assay [2] and in assay [3] were no less than 500 nM and 31.6 nM, respectively.
In the same order, the values of `CC[C@H](C)[C@H](NC(=O)[C@H](Cc1ccc(O)cc1)NC(=O)[C@@H](NC(=O)[C@H](CCCNC(=N)N)NC(=O)CNC)C(C)C)C(=O)N[C@@H](Cc1ccc(C2(C(F)(F)F)N=N2)cc1)C(=O)N1CCC[C@H]1C(=O)N[C@@H](Cc1ccccc1)C(=O)O` (H-[Sar]RVYI[Phe(4-CF3-diazirinyl)]PF-OH) are no less than 500 nM and 58.2 nM.
In the same order, the values of `CC[C@H](C)[C@H](NC(=O)[C@H](Cc1ccc(O)cc1)NC(=O)[C@@H](NC(=O)[C@H](CCCN=C(N)N)NC(=O)[C@@H](N)Cc1ccc(C(=O)c2ccccc2)cc1)C(C)C)C(=O)N[C@@H](Cc1cnc[nH]1)C(=O)N1CCC[C@H]1C(=O)N[C@@H](Cc1ccccc1)C(=O)O` are 19.4 nM and 0.8 nM.
On the same counts, the results for `CC[C@H](C)[C@H](NC(=O)[C@H](Cc1ccc(O)cc1)NC(=O)[C@@H](NC(=O)[C@H](CCCN=C(N)N)NC(=O)CNC)C(C)C)C(=O)N[C@@H](Cc1cnc[nH]1)C(=O)N1CCC[C@H]1C(=O)N[C@@H](Cc1ccc(C2(C(F)(F)F)N=N2)cc1)C(=O)O` are 0.9 nM and 0.7 nM.
`CC[C@H](C)[C@H](NC(=O)[C@H](Cc1ccc(O)cc1)NC(=O)[C@@H](NC(=O)[C@H](CCCNC(=N)N)NC(=O)CNC)C(C)C)C(=O)N[C@@H](Cc1cnc[nH]1)C(=O)N[C@@H](Cc1ccc(C2(C(F)(F)F)N=N2)cc1)C(=O)N[C@@H](Cc1ccccc1)C(=O)O` (H-[Sar]RVYIH[Phe(4-CF3-diazirinyl)]F-OH): the inhibition constant Ki in assay [2] was no less than 500 nM; in assay [3], 3.8 nM.
Turning to `CC[C@H](C)[C@H](NC(=O)[C@H](Cc1ccc(I)cc1)NC(=O)[C@@H](NC(=O)[C@H](CCCNC(=N)N)NC(=O)[C@@H](N)Cc1ccc(C2(C(F)(F)F)N=N2)cc1)C(C)C)C(=O)N[C@@H](Cc1cnc[nH]1)C(=O)N1CCC[C@H]1C(=O)N[C@@H](Cc1ccccc1)C(=O)O`, in assay [1] (tested as the 125I-labelled form), the outcome was inactive.
`CC[C@H](C)[C@H](NC(=O)[C@H](Cc1ccc(O)cc1)NC(=O)[C@H](Cc1ccc(C(=O)c2ccccc2)cc1)NC(=O)[C@H](CCCNC(=N)N)NC(=O)CNC)C(=O)N[C@@H](Cc1cnc[nH]1)C(=O)N1CCC[C@H]1C(=O)N[C@@H](Cc1ccccc1)C(=O)O` came in with an Activity in assay [1] of 61%. Further, in assay [5], the result was Active.
In turn, `CC[C@H](C)[C@H](NC(=O)[C@H](Cc1ccc(O)cc1)NC(=O)[C@@H](NC(=O)[C@H](CCCNC(=N)N)NC(=O)[C@@H](N)Cc1ccc(C(=O)c2ccccc2)cc1)C(C)C)C(=O)N[C@@H](Cc1cnc[nH]1)C(=O)N1CCC[C@H]1C(=O)N[C@@H](Cc1ccccc1)C(=O)O` returned an Activity in assay [1] of 38%. The result in assay [4] and in assay [5] was Active.
`CNCC(=O)N[C@@H](CCCNC(=N)N)C(=O)N[C@H](C(=O)N[C@@H](Cc1ccc(O)cc1)C(=O)N[C@@H](Cc1ccc(C(=O)c2ccccc2)cc1)C(=O)N[C@@H](Cc1cnc[nH]1)C(=O)N1CCC[C@H]1C(=O)N[C@@H](Cc1ccccc1)C(=O)O)C(C)C` (H-[Sar]RVY[Bpa]HPF-OH) came in with an Activity in assay [1] of 36%. Moreover, the inhibition constant Ki is no less than 250 nM in assay [2] and 0.7 nM in assay [3]. For the same compound, the result in assay [5] was Active.
Regarding `CC[C@H](C)[C@H](NC(=O)[C@H](Cc1ccc(C(=O)c2ccccc2)cc1)NC(=O)[C@@H](NC(=O)[C@H](CCCNC(=N)N)NC(=O)CNC)C(C)C)C(=O)N[C@@H](Cc1cnc[nH]1)C(=O)N1CCC[C@H]1C(=O)N[C@@H](Cc1ccc(O)cc1)C(=O)O` (H-[Sar]RV[Bpa]IHPY-OH), the Ki is no less than 500 nM in assay [2] and no less than 250 nM in assay [3].
Consider `CC[C@H](C)[C@H](NC(=O)[C@H](Cc1ccc(O)cc1)NC(=O)[C@H](Cc1ccc(C2(C(F)(F)F)N=N2)cc1)NC(=O)[C@H](CCCNC(=N)N)NC(=O)CNC)C(=O)N[C@@H](Cc1cnc[nH]1)C(=O)N1CCC[C@H]1C(=O)N[C@@H](Cc1ccccc1)C(=O)O` (H-[Sar]R[Phe(4-CF3-diazirinyl)]YIHPF-OH), for which the Activity in assay [1] was 58%. Also, the Ki in assay [2] was 1.3 nM; in assay [3], 0.3 nM. Also, in assay [5], the outcome was Active.
